Results on three compounds are retold here after patent US20160175324A1, “ANTI-ACNE COMPOSITIONS COMPRISING BILE ACID-FATTY ACID CONJUGATES” (GALDERM THERAPEUTICS LTD., priority 2013, published 2016).

For data set [1], the system named is Full-thickness Epiderm cultures (EFT-400, MatTek). The data set is described as follows: Cytotoxicity assay (MTT) after topical application to full-thickness skin cultures. It counts as cell-based. To be noted: for Cell Viability: 24-hour exposure, MTT, vs untreated control. As for the experimental part:
Full-thickness Epiderm cultures (EFT-400, MatTek) were used to determine toxicity in response to topical application of a test material (Steamchol).
The test material was provided as a powder. Test solutions were prepared by adding the appropriate amount of powdered material to 1 mL DMSO. Lower concentrations were made by serial dilution with 100% DMSO. The final test material concentrations and treatments were: 2% Steamchol (20,000 ug/mL); 1% Steamchol (10,000 ug/mL); 0.1% Steamchol (1000 ug/mL); 0.01% Steamchol (100 ug/mL); vehicle control (100% DMSO); and untreated control.
Full-thickness skin cultures (EFT-400) were maintained according to MatTek protocol; the cultures were equilibrated at 37° C. and 5% CO2 for 24 hours prior to application of test materials. Test material was applied to the surface of each culture using sterile techniques (10 μL applied to each culture). Two cultures were assigned to each treatment group and the viability percentages presented below are averages of viability of each two cultures. Two EFT cultures served as an untreated control (also referred to as negative control in FIG. 2), and two other EFT cultures served as a positive control (100 μL 1% Triton X-100).
Following a 24-hour incubation period with the test material, cultures were processed for cell toxicity analysis using an MTT [(3-4,5-dimethylthiazole-2-yl) 2,5-diphenyltetrazoliumbromide] assay (reagents purchased from MatTek). Viable tissues converted MTT into a blue formazan salt that was detected by measuring absorbance at a specific wavelength of light (A570). Percent viability was calculated by comparing the A570 reading of the test cultures to the A570 of the untreated control culture, using the following formula: [Treated A570/Untreated A570]*100

Another data set concerns human skin fibroblasts. The data set is described as follows: Cholesterol efflux with [3H] cholesterol in fibroblasts. It counts as cell-based. The conditions noted are these: 20 hours incubation, compared to untreated cells. As to the method: (§1) Steamchol was incubated with human skin fibroblasts for 20 hours to measure cholesterol loading in the presence of [^3H] cholesterol. After series of washing and adding efflux containing cholesterol acceptors, medium was collected and centrifuged and cell associated cholesterol was compared to effluxed cholesterol in the presence and absence of the similar FABAC. This research project also included quantification of mRNA of ABCA1 and direct measurement of ABCA1.
(§2) Similarly, cells were pre-incubated with […] cholesterol, washed four times and then placed in an incubation medium with or without Aramchol for 20 hours. Following the incubation, radioactivity was measured separately in the medium and in the cells. Cholesterol efflux percentage was calculated as radioactivity in medium divided by the total radioactivity (cells+medium).

Data set [2] relates to ABCA1. As to the kind of experiment: ABCA1 protein concentration in fibroblasts during cholesterol efflux. It counts as cell-based, human. To be noted: efflux in the presence of FABAC, compared to untreated cells. As to the method: as §1, §2
The subject of the next data set is KRT10 (keratin 10). The data set is described as follows: Taqman gene expression in Epiderm FT skin culture, KRT10. To be noted: 0.5% (5000 μg/mL) in DMSO, 24 hours post-application, vs DMSO control. The data set is classed as cell-based. As for the experimental part: (§3) A full-thickness in vitro skin culture model, Epiderm FT (MatTek, MA), was treated with Steamchol. A non-cytotoxic concentration of Steamchol in DMSO (0.5%, 5000 μg/mL) was applied to the surface of each test culture and cells were collected 24 hours post-application. Control cells were similarly treated with DMSO without Steamchol. Tissues were collected in RNAlater for gene expression analysis. Gene expression was analyzed using validated Taqman gene expression assays in a Taqman Low Density Array (TLDA) format. 94 genes that regulate a variety of known functions in skin were analyzed, including the ABCA1 and SCD1 genes. The experimental set up was conducted in a 96-well format using validated Taqman gene expression assays. Each gene was assayed in duplicates. Statistics were carried out using the StatMiner software v4.2 (unpaired t-tests, p<0.05, N=4) to compare the 0.5% Steamchol group to the DMSO control group.

In the next data set the test system is KRT1 (keratin 1). The data set is described as follows: Taqman gene expression in Epiderm FT skin culture, KRT1. It counts as cell-based. The conditions noted are these: 0.5% (5000 μg/mL) in DMSO, 24 hours post-application, vs DMSO control. As for the experimental part:
as §3
In general terms: Real-time PCR tracks product formation cycle by cycle.

For data set [3], the system named is ABCA1. As to the kind of experiment: Taqman gene expression in Epiderm FT skin culture, ABCA1 mRNA. To be noted: 0.5% (5000 μg/mL) in DMSO, 24 hours post-application, vs DMSO control. It counts as cell-based. As for the experimental part: as §3
In another data set the test system is sebum production. To be noted: background statement; cited from earlier work.

Molecules are shown by their SMILES.

Consider `CCCCCCCCCCCCCCCCCC(=O)N[C@H]1CC[C@@]2(C)[C@@H](C1)C[C@@H](O)[C@@H]1[C@@H]2C[C@H](O)[C@]2(C)[C@@H]([C@H](C)CCC(=O)O)CC[C@@H]12` [Steamchol, 3β-stearylamido-7α,12α, dihidroxy-5β-cholan-24-oic acid], for which the “Cell Viability” value in data set [1] (0.01% Steamchol (100 ug/mL) in DMSO) is 100.41%; in data set [1] (0.1% Steamchol (1000 ug/mL) in DMSO), 99.98%; in data set [1] (1% Steamchol (10,000 ug/mL) in DMSO) it was 96.88%; in data set [1] (2% Steamchol (20,000 ug/mL) in DMSO), 93.89%. In data set [1] (40.0, 13.3, 4.4, 1.5 ug/mL, data not shown), the “Toxicity in previous viability assay” value is recorded as “no toxicity was observed”. Moreover, the “Cell viability compared to the untreated control” value in data set [1] (all dilutions tested (0.01%-2%), 24 hours) is about 100%. Also, the “Cholesterol efflux in fibroblasts” value in the data set with human skin fibroblasts is “significantly enhanced”. Besides, the “ABCA1 protein concentration increase” value with ABCA1 [2] is listed as “approximately 2 fold”. Besides, the “Fold Change of keratin 10 gene expression” value in the data set with KRT10 (keratin 10) was −2.60. The “Fold Change of keratin 1 gene expression” value in the data set on KRT1 (keratin 1) was −2.49. Further, the “Change in mRNA levels of ABCA1” value in the data set with ABCA1 [3] is on record as “No significant change”.
As to `CC1=C(/C=C/C(C)=C/C=C/C(C)=C\C(=O)O)C(C)(C)CCC1` [Isotretinoin], in the data set on sebum production, the “Decrease of sebum production” value was “up to 90%”.
Turning to `CCCCCCCCCCCCCCCCCCCC(=O)N[C@H]1CC[C@@]2(C)[C@@H](C1)C[C@@H](O)[C@@H]1[C@@H]2C[C@H](O)[C@]2(C)[C@@H]([C@H](C)CCC(=O)O)CC[C@@H]12` [Aramchol, 3β-arachidylamido-7α,12α, dihidroxy-5β-cholan-24-oic acid], the “Cholesterol efflux in fibroblasts” value in the data set with human skin fibroblasts is listed as “significantly enhanced”. Moreover, the “ABCA1 protein concentration increase” value with ABCA1 [2] is recorded as “approximately 2 fold”.
